IC50 data for eleven molecules are collected here from US7704995B2 (Exelixis, Inc., priority 2003, dated 2010).

The assay concerns the target T1, Chk1 (Homo sapiens, UniProt O14757).
T1 construct: purchased Upstate Biotechnology
T1 sequence (O14757 1-476): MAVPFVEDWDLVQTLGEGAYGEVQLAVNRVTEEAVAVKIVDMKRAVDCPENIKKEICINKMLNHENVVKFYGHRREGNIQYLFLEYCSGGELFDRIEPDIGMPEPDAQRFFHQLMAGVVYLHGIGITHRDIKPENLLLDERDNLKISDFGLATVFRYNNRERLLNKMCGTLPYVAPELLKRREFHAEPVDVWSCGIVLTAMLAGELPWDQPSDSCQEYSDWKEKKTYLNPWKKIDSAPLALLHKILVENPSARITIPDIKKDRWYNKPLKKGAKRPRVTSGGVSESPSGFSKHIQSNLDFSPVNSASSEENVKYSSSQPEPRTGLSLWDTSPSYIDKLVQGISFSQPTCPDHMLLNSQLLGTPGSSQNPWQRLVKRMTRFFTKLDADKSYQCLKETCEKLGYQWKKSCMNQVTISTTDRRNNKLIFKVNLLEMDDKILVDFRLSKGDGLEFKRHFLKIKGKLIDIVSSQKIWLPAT
In words: Chk1 kinase assay: incorporation of γ-33P ATP into immobilized myelin basic protein. Type of assay: biochemical. The following applies: Table 11; Chk1 only; read-out: Chk1 IC50. An outline of the steps:
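Incorporation of γ-33P into myelin basic protein coated on plates was scintillation-counted after 1 h at room temperature, duplicate points. Unlabeled ATP was 10 μM with 10 nM Chk1, 30 μM with 20 nM Chk2; buffer Hepes pH 7.6, MgCl2, DTT, 1% DMSO. Output IC50, optionally converted to Ki.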
`Nc1ncc(-c2cccc(C(=O)NC3CCOc4ccccc43)c2)nc1C(=O)N[C@H]1CCNC1` (stereo partly drawn) [Example 778, 3-amino-6-{3-[(3,4-dihydro-2H-chromen-4-ylamino)carbonyl]phenyl}-N-[(3S)-pyrrolidin-3-yl]pyrazine-2-carboxamide]: the IC50 fell in the range of 0.05 to 1 µM. To `Nc1ncc(-c2cccc(C(=O)NC3COc4ccccc43)c2)nc1C(=O)N[C@H]1CCNC1` (stereo partly drawn) [Example 779, 3-amino-6-{3-[(2,3-dihydro-1-benzofuran-3-ylamino)carbonyl]phenyl}-N-[(3S)-pyrrolidin-3-yl]pyrazine-2-carboxamide] belongs 0.05 to 1 µM; to `Nc1ncc(-c2cccc(C(=O)N[C@@H]3c4ccccc4C[C@@H]3O)c2)nc1C(=O)NC[C@@H]1CCNC1` [Example 780, 3-amino-6-[3-({[(1R,2S)-2-hydroxy-2,3-dihydro-1H-inden-1-yl]amino}carbonyl)phenyl]-N-[(3R)-pyrrolidin-3-ylmethyl]pyrazine-2-carboxamide], under 0.05 µM; to `CC(C)(C)OC(=O)N1CCCC(NC(=O)c2nc(-c3cccc(C(=O)N[C@@H]4c5ccccc5C[C@@H]4O)c3)cnc2N)CC1` (stereo partly drawn) [Example 781, 1,1-dimethylethyl 4-[({3-amino-6-[3-({[(1R,2S)-2-hydroxy-2,3-dihydro-1H-inden-1-yl]amino}carbonyl)phenyl]pyrazin-2-yl}carbonyl)amino]azepane-1-carboxylate], 0.05 to 1 µM. As for `Nc1ncc(-c2cccc(C(=O)N[C@@H]3c4ccccc4C[C@@H]3O)c2)nc1C(=O)NC1CCCNCC1` (stereo partly drawn) [Example 782, 3-amino-N-azepan-4-yl-6-[3-({[(1R,2S)-2-hydroxy-2,3-dihydro-1H-inden-1-yl]amino}carbonyl)phenyl]pyrazine-2-carboxamide], the IC50 is under 0.05 µM. To `Nc1ncc(-c2cccc(C3=N[C@@H]4c5ccccc5C[C@@H]4O3)c2)nc1C(=O)NC1CCCNCC1` (stereo partly drawn) [Example 783, 3-amino-N-azepan-4-yl-6-{3-[(3aR,8aS)-8,8a-dihydro-3aH-indeno[1,2-d][1,3]oxazol-2-yl]phenyl}pyrazine-2-carboxamide] belongs 0.05 to 1 µM; to `Nc1ncc(-c2cccc(C(=O)N[C@H]3CCc4ccccc43)c2)nc1C(=O)NC[C@H]1CCNC1` [Example 785, 3-amino-6-(3-{[(1S)-2,3-dihydro-1H-inden-1-ylamino]carbonyl}phenyl)-N-[(3S)-pyrrolidin-3-ylmethyl]pyrazine-2-carboxamide], under 0.05 µM; to `CC(C)(C)OC(=O)N1CC[C@H](CNC(=O)c2nc(-c3cccc(C(=O)N[C@@H]4c5ccccc5C[C@@H]4O)c3)cnc2N)C1` [Example 786, 1,1-dimethylethyl (3R)-3-{[({3-amino-6-[3-({[(1R,2S)-2-hydroxy-2,3-dihydro-1H-inden-1-yl]amino}carbonyl)phenyl]pyrazin-2-yl}carbonyl)amino]methyl}pyrrolidine-1-carboxylate], at least 10 µM. On to `Nc1ncc(-c2cccc(C(=O)N[C@@H]3c4ccccc4C[C@@H]3O)c2)nc1C(=O)NC[C@H]1CCNC1` [Example 787, 3-amino-6-[3-({[(1R,2S)-2-hydroxy-2,3-dihydro-1H-inden-1-yl]amino}carbonyl)phenyl]-N-[(3S)-pyrrolidin-3-ylmethyl]pyrazine-2-carboxamide], for which the IC50 was under 0.05 µM.

In the case of `CNC(=O)c1nc(-c2cc(F)cc(C(=O)N[C@H]3CCc4ccccc43)c2)cnc1N` [Example 788, 3-amino-6-(3-{[(1S)-2,3-dihydro-1H-inden-1-ylamino]carbonyl}-5-fluorophenyl)-N-methylpyrazine-2-carboxamide], the IC50 lay within 0.05 to 1 µM. Consider `CNC(=O)c1nc(-c2cc(C(=O)O)cc(C(=O)OC)c2)cnc1N` [Example 789, 3-{5-amino-6-[(methylamino)carbonyl]pyrazin-2-yl}-5-[(methyloxy)carbonyl]benzoic acid], for which the IC50 fell in the range of 1 to 10 µM.

The IC50 is the concentration that gives 50% inhibition.
